From patent publication US11124516B2, “Pyrrolo[1,2-A]pyrimidinyl carboxamide compounds and their use in the treatment of medical disorders” (Bial—Biotech Investments, Inc., priority 2016, dated 2021)
In brackets after ≈: the same amount, converted by molar mass.

What was measured:
[1] = molecular target: T1, glucocerebrosidase (Gcase) (Homo sapiens, UniProt P04062); assay: Glucocerebrosidase (Gcase) activation assay, 4-methylumbelliferyl-beta-D-glucopyranoside substrate, fluorescence; format: biochemical; conditions: 10 nM GCase, 100 nM saposin C; for activation at 0.1 µM / activation at 1 µM: 0.25 h; for activation at 0.1 µM: pH 4.7, test compound at 0.1 μM, read-out: Percent Gcase Activation 0.1 μM Test Compound; for activation at 1 µM: pH 4.7, test compound at 1.0 μM, read-out: Percent Gcase Activation 1 μM Test Compound; for Percent Gcase Activation 0.1 μM Test Compound: test compound at 0.1 μM; for Percent Gcase Activation 0.1 μM Test Compound / Percent Gcase Activation 1 μM Test Compound: pH 4.7; for Percent Gcase Activation 1 μM Test Compound: test compound at 1.0 μM
T1 sequence (P04062 40-536): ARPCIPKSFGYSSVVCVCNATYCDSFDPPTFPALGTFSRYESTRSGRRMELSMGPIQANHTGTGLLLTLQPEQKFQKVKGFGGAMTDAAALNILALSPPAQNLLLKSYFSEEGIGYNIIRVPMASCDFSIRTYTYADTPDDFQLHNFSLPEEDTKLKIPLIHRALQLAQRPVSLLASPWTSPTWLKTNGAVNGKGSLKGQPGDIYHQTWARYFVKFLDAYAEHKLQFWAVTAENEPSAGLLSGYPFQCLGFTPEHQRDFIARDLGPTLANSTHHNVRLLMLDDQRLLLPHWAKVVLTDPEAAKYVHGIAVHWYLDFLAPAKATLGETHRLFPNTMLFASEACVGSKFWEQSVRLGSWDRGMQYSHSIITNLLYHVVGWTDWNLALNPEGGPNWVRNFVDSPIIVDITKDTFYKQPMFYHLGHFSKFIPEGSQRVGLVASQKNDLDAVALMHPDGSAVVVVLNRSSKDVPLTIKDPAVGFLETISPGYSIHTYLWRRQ
Method: The ability of exemplary compounds to activate glucocerebrosidase (Gcase) was measured.
A 484 μL aliquot of a 1.0 mg/mL solution of phosphatidylserine (PS) (Sigma P7769) in chloroform was evaporated under a stream of nitrogen for 1 hour. The lipid film was dissolved over 4 minutes of vigorous vortexing in 40 mL of 176 mM K2HPO4/50 mM citric acid (pH 4.7) containing 7.5 μL of triton X-100, resulting in a mixed micellar preparation with a composition of 0.32 mM triton and 0.37 mol % PS. 4-Methylumbelliferyl-beta-D-glucopyranoside (ACROS-337025000) was dissolved in the micellar solution to a final concentration of 2 mM for use as the reaction substrate.
Test compounds were diluted to the desired concentrations with dimethylsulfoxide (DMSO) from 10 mM stocks, and 0.41 μL of the DMSO compound mixture was added to 100 μL of micellar solution containing 10 nM GCase and 100 nM saposin C (Enzo ALX-201-262-C050). Pre-incubation was allowed to occur for 30 minutes at room temperature, after which the reaction was initiated by combining 25 μL of substrate solution with 25 μL of compound/GCase/saposin mixture. The reaction proceeded for 15 minutes at room temperature and was stopped by adding 150 μL of 1M glycine, pH 12.5. The endpoint of the reaction was monitored by measuring fluorescence intensity (excitation: 365 nm; emission: 440 nm) on a SpectraMax i3 instrument (Molecular Devices). Test compounds were screened at 1.0 and 0.1 μM final concentration, and subsequent 8-point dose response curves were obtained using 3-fold dilutions from a maximum final concentration of 5 μM.
For experiments in which the test compound was used at a concentration of 1.0 μM, the symbol “+” indicates less than 30% Gcase activation; the symbol “++” indicates Gcase activation in the range of 30% up to 60%; and the symbol “+++” indicates Gcase activation greater than 60%. For experiments in which the test compound was used at a concentration of 0.1 μM, the symbol “*” indicates less than 10% Gcase activation; the symbol “**” indicates Gcase activation in the range of 10% up to 20%; and the symbol “***” indicates greater than 20% Gcase activation.

[2] = Compound solubility in water; format: physicochemical

Cc1cc(C)n2ccc(C(=O)NC(CC(C)C)c3ccccc3)c2n1 (stereo not shown) [IV-66]
activation at 0.1 µM [1]: > 20%
activation at 1 µM [1]: > 60%
solubility [2]: 1 µg/mL (≈ 2.98 µM)

Cc1cc(C)n2ccc(C(=O)NC(CC(C)C)C3CC3)c2n1 (stereo not shown) [III-24]
activation at 0.1 µM [1]: > 20%
activation at 1 µM [1]: > 60%
solubility [2]: 10.9 µg/mL (≈ 36.4 µM)

Cc1c(-c2ccc(F)cc2)cnc2c(C(=O)N[C@@H](C)C3CC3)ccn12 [III-51]
activation at 0.1 µM [1]: < 10%
activation at 1 µM [1]: < 30%
solubility [2]: 0.1 µg/mL (≈ 0.296 µM)

Cc1cc(C)n2ccc(C(=O)NC(C)C3CCCCC3)c2n1 (stereo not shown) [III-63]
Percent Gcase Activation 0.1 μM Test Compound [1]: *** (greater than 20% Gcase activation)
Percent Gcase Activation 1 μM Test Compound [1]: +++ (Gcase activation greater than 60%)
Compound Solubility in Water [2]: 4.2 µg/mL

Cc1cc(C)n2cc(C)c(C(=O)N[C@@H](C)C3CC3)c2n1 [III-27]
activation at 0.1 µM [1]: 10 to 20%
activation at 1 µM [1]: > 60%
solubility [2]: 8.6 µg/mL (≈ 31.7 µM)

Cc1c2c(nc3c(C(=O)NC(C)(C)C4CC4)ccn13)CCC2 [III-73]
activation at 0.1 µM [1]: 10 to 20%
activation at 1 µM [1]: > 60%
solubility [2]: 0.9 µg/mL (≈ 3.03 µM)

Cc1cc(-c2ccc(F)cc2)nc2c(C(=O)N[C@@H](C)C3CC3)ccn12 [III-30]
activation at 0.1 µM [1]: > 20%
activation at 1 µM [1]: > 60%
solubility [2]: 0.1 µg/mL (≈ 0.296 µM)

COCc1cc(C)n2ccc(C(=O)N[C@H]3CC[C@H](OCC(C)C)CC3)c2n1 [IV-4]
activation at 0.1 µM [1]: 10 to 20%
activation at 1 µM [1]: > 60%
solubility [2]: 16.9 µg/mL (≈ 45.2 µM)

Cc1cc(C)n2ccc(C(=O)N[C@@H](C)C3CC3)c2n1 [III-64]
activation at 0.1 µM [1]: > 20%
activation at 1 µM [1]: > 60%
solubility [2]: 21.7 µg/mL (≈ 84.3 µM)

CCC(NC(=O)c1ccn2c(C)cc(C)nc12)c1cc(C)ccn1 (stereo not shown) [IV-54]
activation at 0.1 µM [1]: < 10%
activation at 1 µM [1]: < 30%
solubility [2]: 23.2 µg/mL (≈ 72 µM)

Cc1cc(C)n2ccc(C(=O)NC(C)(c3ccccc3)c3ccccc3)c2n1 [IV-39]
activation at 0.1 µM [1]: 10 to 20%
activation at 1 µM [1]: > 60%
solubility [2]: 0.8 µg/mL (≈ 2.17 µM)

CCCO[C@H]1CC[C@H](NC(=O)c2ccn3c(C)cc(-c4cccnc4)nc23)CC1 [III-57]
activation at 0.1 µM [1]: 10 to 20%
activation at 1 µM [1]: > 60%
solubility [2]: 14.9 µg/mL (≈ 38 µM)

C[C@H](NC(=O)c1ccn2c(C(F)F)cc(C(F)F)nc12)C1CC1 [III-6]
activation at 0.1 µM [1]: 10 to 20%
activation at 1 µM [1]: > 60%
solubility [2]: 33.5 µg/mL (≈ 102 µM)

Cc1cc(-c2ccncc2)nc2c(C(=O)NC(C)(C)C3CC3)ccn12 [III-40]
activation at 0.1 µM [1]: 10 to 20%
activation at 1 µM [1]: > 60%
solubility [2]: 3.5 µg/mL (≈ 10.5 µM)

Cc1cc(C)n2ccc(C(=O)N[C@H](C)c3ccc(Cl)cc3)c2n1 [IV-25]
activation at 0.1 µM [1]: > 20%
activation at 1 µM [1]: > 60%
solubility [2]: 0.6 µg/mL (≈ 1.83 µM)

Cc1cc(C2CCOCC2)nc2c(C(=O)NC(C)(C)C3CC3)ccn12 [III-36]
activation at 0.1 µM [1]: < 10%
activation at 1 µM [1]: 30 to 60%
solubility [2]: 21.3 µg/mL (≈ 62.4 µM)

COCc1cc(C)nc2c(C(=O)N[C@H]3CC[C@H](OCC(C)C)CC3)ccn12 [IV-3]
activation at 0.1 µM [1]: > 20%
activation at 1 µM [1]: > 60%
solubility [2]: 15.9 µg/mL (≈ 42.6 µM)

Cc1cc(C)n2ccc(C(=O)NC(C)c3cccc4ccccc34)c2n1 (stereo not shown) [IV-23]
activation at 0.1 µM [1]: 10 to 20%
activation at 1 µM [1]: > 60%
Compound Solubility in Water [2]: 0.2 µg/mL

Cc1cc(C)n2ccc(C(=O)NC3(C4CC4)CC3)c2n1 [III-22]
activation at 0.1 µM [1]: 10 to 20%
activation at 1 µM [1]: > 60%
solubility [2]: 21.4 µg/mL (≈ 79.5 µM)

Cc1cc(C)n2c(C)cc(C(=O)N[C@@H](C)C3CC3)c2n1 [III-26]
activation at 0.1 µM [1]: 10 to 20%
activation at 1 µM [1]: > 60%
solubility [2]: 8.6 µg/mL (≈ 31.7 µM)

Cc1cc(N2CCC(F)(F)CC2)nc2c(C(=O)NC(C)(C)C3CC3)ccn12 [III-44]
activation at 0.1 µM [1]: 10 to 20%
activation at 1 µM [1]: > 60%
solubility [2]: 1.4 µg/mL (≈ 3.72 µM)

Cc1cc(C)n2ccc(C(=O)NC(C)(C)c3ccc4c(c3)OCCO4)c2n1 [IV-19]
activation at 0.1 µM [1]: > 20%
activation at 1 µM [1]: > 60%
solubility [2]: 2.1 µg/mL (≈ 5.75 µM)

Cc1cc(C)n2ccc(C(=O)NC(C)c3nc4c(s3)CCCC4)c2n1 (stereo not shown) [IV-64]
activation at 0.1 µM [1]: 10 to 20%
activation at 1 µM [1]: > 60%
solubility [2]: 4.9 µg/mL (≈ 13.8 µM)

COc1ccc([C@@H](C)NC(=O)c2ccn3c(C)cc(C)nc23)cc1 [IV-24]
activation at 0.1 µM [1]: < 10%
activation at 1 µM [1]: > 60%
solubility [2]: 5.3 µg/mL (≈ 16.4 µM)

Cc1cc(C(F)F)n2ccc(C(=O)N[C@H]3CC[C@H](OCC(C)(C)C)CC3)c2n1 [IV-10]
activation at 0.1 µM [1]: > 20%
activation at 1 µM [1]: > 60%
solubility [2]: 0.3 µg/mL (≈ 0.762 µM)

CCC(NC(=O)c1ccn2c(C)cc(C)nc12)c1cccnc1 (stereo not shown) [IV-50]
activation at 0.1 µM [1]: < 10%
activation at 1 µM [1]: 30 to 60%
solubility [2]: 24.7 µg/mL (≈ 80.1 µM)

C#Cc1ccc(NC(=O)c2ccn3c(C)cc(-c4cccnc4)nc23)cc1 [III-61]
activation at 0.1 µM [1]: > 20%
activation at 1 µM [1]: > 60%
solubility [2]: 1.2 µg/mL (≈ 3.41 µM)

Cc1cc(Cl)n2ccc(C(=O)NC(C)(C)C3CC3)c2n1 [III-12]
activation at 0.1 µM [1]: 10 to 20%
activation at 1 µM [1]: > 60%
solubility [2]: 5.8 µg/mL (≈ 19.9 µM)

Cc1cc(C)n2ccc(C(=O)NC(Cc3ccccc3)c3ccccc3)c2n1 (stereo not shown) [IV-38]
solubility [2]: 0.2 µg/mL (≈ 0.541 µM)

COCC(NC(=O)c1ccn2c(C)cc(C)nc12)C1CC1 (stereo not shown) [III-66]
activation at 0.1 µM [1]: < 10%
activation at 1 µM [1]: < 30%

Cc1cn2ccc(C(=O)NC(C)(C)C3CC3)c2nc1-c1ccc(F)cc1 [III-50]
activation at 0.1 µM [1]: < 10%
activation at 1 µM [1]: > 60%

Cc1cc(C)n2ccc(C(=O)NC(C)c3nc4ccccc4n3C)c2n1 (stereo not shown) [IV-85]
activation at 0.1 µM [1]: < 10%
activation at 1 µM [1]: < 30%

Cc1cc(C)n2ccc(C(=O)NC(C)C3COc4ccccc4O3)c2n1 (stereo not shown) [IV-36]
Percent Gcase Activation 0.1 μM Test Compound [1]: * (less than 10% Gcase activation)
Percent Gcase Activation 1 μM Test Compound [1]: + (less than 30% Gcase activation)

Cc1cc(C)n2ccc(C(=O)N[C@@H](C)c3cccc4c3CCCC4)c2n1 [IV-99]
activation at 0.1 µM [1]: > 20%
activation at 1 µM [1]: > 60%

COCC(C)(NC(=O)c1ccn2c(C)cc(C)nc12)c1ccccc1 (stereo not shown) [III-68]
activation at 0.1 µM [1]: < 10%
activation at 1 µM [1]: > 60%

CCc1ccc([C@@H](C)NC(=O)c2ccn3c(C)cc(C)nc23)cc1 [IV-100]
activation at 0.1 µM [1]: 10 to 20%
activation at 1 µM [1]: > 60%

Cc1cc(C)n2ccc(C(=O)NC(C)C3Oc4ccccc4C3C)c2n1 (stereo not shown) [IV-87]
activation at 0.1 µM [1]: 10 to 20%
activation at 1 µM [1]: > 60%

Cc1ccc(C(CO)NC(=O)c2ccn3c(C)cc(C)nc23)c(C)c1 (stereo not shown) [IV-91]
activation at 0.1 µM [1]: < 10%
activation at 1 µM [1]: < 30%
